{"source": "patent US20100267561A1", "about": "“HERBICIDAL PYRIDAZINONE DERIVATIVES” (priority 2007, published 2010)", "assay_type_in_all_cases": "in vivo", "key": {"[1]": {"test_system": "wheat (Triticum aestivum)", "assay": "Test A pre-/postemergence plant response", "method_in_brief": "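Ratings are visual, 0–100, where 100 means complete control and 0 no effect, taken roughly 10 days after treatment by comparison with untreated controls. Formulation: non-phytotoxic solvent mixture with surfactant.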"}, "[2]": {"test_system": "Italian ryegrass (Lolium multiflorum)", "assay": "Test B pre-/postemergence plant response", "settings": "for Ryegrass, Italian plant response rating: postemergence, 0-100 scale; for Plant response rating, Ryegrass, Italian: Postemergence", "excerpt": "(§1) Seeds of plant species selected from blackgrass (Alopecurus myosuroides), downy bromegrass (Bromus tectorum), green foxtail (Setaria viridis), Italian ryegrass (Lolium multiflorum), wheat (Triticum aestivum), wild oat (Avena fatua), catchweed bedstraw (Galium aparine), bermudagrass (Cynodon dactylon), surinam grass (Brachiaria decumbens), cocklebur (Xanthium strumarium), corn (Zea mays), large crabgrass (Digitaria sanguinalis), woolly cupgrass (Eriochloa villosa), giant foxtail (Setaria faberii), goosegrass (Eleusine indica), johnsongrass (Sorghum halepense), kochia (Kochia scoparia), lambsquarters (Chenopodium album), morningglory (Ipomoea coccinea), eastern black (E.B.) nightshade (Solanum ptycanthum), yellow nutsedge (Cyperus esculentus), pigweed (Amaranthus retroflexus), common ragweed (Ambrosia elation), Russian thistle (Salsola iberica), soybean (Glycine max), common (oilseed) sunflower (Helianthus annuus), and velvetleaf (Abutilon theophrasti) were planted and treated preemergence with test chemicals formulated in a non-phytotoxic solvent mixture which included a surfactant.\n(§2) At the same time, plants selected from these crop and weed species and also winter barley (Hordeum vulgare), canarygrass (Phalaris minor), chickweed (Stellaria media) and windgrass (Apera spica-venti) were treated with postemergence applications of some of the test chemicals formulated in the same manner. Plants ranged in height from 2 to 18 cm (1- to 4-leaf stage) for postemergence treatments.\n(§3) Plant species in the flooded paddy test consisted of rice (Oryza sativa), umbrella sedge (Cyperus difformis), ducksalad (Heteranthera limosa) and barnyardgrass (Echinochloa crus-galli) grown to the 2-leaf stage for testing. At time of treatment, test pots were flooded to 3 cm above the soil surface, treated by application of test compounds directly to the paddy water, and then maintained at that water depth for the duration of the test. Treated plants and controls were maintained in a greenhouse for 13 to 15 days, after which time all species were compared to controls and visually evaluated. Plant response ratings, summarized in Table B, are based on a scale of 0 to 100 where 0 is no effect and 100 is complete control. A dash (-) response means no test result."}, "[3]": {"test_system": "cocklebur (Xanthium strumarium)", "assay": "Test B pre-/postemergence plant response", "settings": "for Plant response rating, Cocklebur: Postemergence", "excerpt": "as §1, §2, §3"}, "[4]": {"test_system": "common ragweed (Ambrosia elation)", "assay": "Test B pre-/postemergence plant response", "settings": "for Ragweed plant response rating: postemergence, 0-100 scale; for Plant response rating, Ragweed: Postemergence", "excerpt": "as §1, §2, §3"}, "[5]": {"test_system": "goosegrass (Eleusine indica)", "assay": "Test B pre-/postemergence plant response", "settings": "for Goosegrass plant response rating: postemergence, 0-100 scale; for Plant response rating, Goosegrass: Postemergence", "excerpt": "as §1, §2, §3"}, "kochia (Kochia scoparia)": {"test_system": "kochia (Kochia scoparia)", "assay": "Test B pre-/postemergence plant response", "settings": "for Kochia plant response rating: postemergence, 0-100 scale; for Plant response rating, Kochia: Postemergence", "excerpt": "as §1, §2, §3"}, "[6]": {"test_system": "pigweed (Amaranthus retroflexus)", "assay": "Test B pre-/postemergence plant response", "settings": "for Pigweed plant response rating: postemergence, 0-100 scale; for Plant response rating, Pigweed: Postemergence", "excerpt": "as §1, §2, §3"}, "soybean (Glycine max)": {"test_system": "soybean (Glycine max)", "assay": "Test B pre-/postemergence plant response", "settings": "for Soybean plant response rating: postemergence, 0-100 scale; for Plant response rating, Soybean: Postemergence", "excerpt": "as §1, §2, §3"}, "[7]": {"test_system": "woolly cupgrass (Eriochloa villosa)", "assay": "Test B pre-/postemergence plant response", "settings": "for Plant response rating, Cupgrass, Woolly: Postemergence", "excerpt": "as §1, §2, §3"}, "[8]": {"test_system": "yellow nutsedge (Cyperus esculentus)", "assay": "Test B pre-/postemergence plant response", "settings": "for Nutsedge, Yellow plant response rating: postemergence, 0-100 scale; for Plant response rating, Nutsedge, Yellow: Postemergence", "excerpt": "as §1, §2, §3"}, "[9]": {"settings": "62 g ai/ha, scale 0 to 100, 0 no effect, 100 complete control"}, "[10]": {"settings": "8 g ai/ha, postemergence, 0-100 scale"}}, "data": [{"smiles": "COCc1cc(-c2ccc(Br)cc2)nn1-c1c(O)cnn(C)c1=O", "note": "[Compound 68]", "values": [{"measurement": "Plant response rating, Wheat", "setting": "[1]; Postemergence, 31 g ai/ha, 0 to 100 scale (0 no effect, 100 complete control)", "value": 0}, {"measurement": "Plant response rating, Wheat", "setting": "[1]; Postemergence, 125 g ai/ha, 0 to 100 scale, 0 no effect, 100 complete control", "value": 0}, {"measurement": "Plant response rating, Wheat", "setting": "[1]; Preemergence, 31 g ai/ha, 0 to 100 scale, 0 is no effect, 100 is complete control", "value": 0}, {"measurement": "Ryegrass, Italian plant response rating", "setting": "[2]; 8 g ai/ha", "value": 0}, {"measurement": "Ryegrass, Italian plant response rating", "setting": "[2]; 16 g ai/ha", "value": 10}, {"measurement": "Plant response rating, Ryegrass, Italian", "setting": "[2]; 31 g ai/ha, scale 0 to 100", "value": 80}, {"measurement": "Plant response rating, Ryegrass, Italian", "setting": "[2]; [9]", "value": 95}, {"measurement": "Cocklebur plant response rating", "setting": "[3]; [10]", "value": 0}, {"measurement": "Plant response rating, Cocklebur", "setting": "[3]; 16 g ai/ha, scale 0 to 100", "value": 0}, {"measurement": "Plant response rating, Cocklebur", "setting": "[3]; 31 g ai/ha, scale 0 to 100", "value": 0}, {"measurement": "Plant response rating, Cocklebur", "setting": "[3]; [9]", "value": 0}, {"measurement": "Ragweed plant response rating", "setting": "[4]; 8 g ai/ha", "value": 0}, {"measurement": "Ragweed plant response rating", "setting": "[4]; 16 g ai/ha", "value": 0}, {"measurement": "Plant response rating, Ragweed", "setting": "[4]; 31 g ai/ha, scale 0 to 100", "value": 0}, {"measurement": "Plant response rating, Ragweed", "setting": "[4]; [9]", "value": 0}, {"measurement": "Goosegrass plant response rating", "setting": "[5]; 8 g ai/ha", "value": 0}, {"measurement": "Goosegrass plant response rating", "setting": "[5]; 16 g ai/ha", "value": 0}, {"measurement": "Plant response rating, Goosegrass", "setting": "[5]; 31 g ai/ha, scale 0 to 100", "value": 0}, {"measurement": "Plant response rating, Goosegrass", "setting": "[5]; [9]", "value": 5}, {"measurement": "Kochia plant response rating", "setting": "kochia (Kochia scoparia); 8 g ai/ha", "value": 0}, {"measurement": "Kochia plant response rating", "setting": "kochia (Kochia scoparia); 16 g ai/ha", "value": 0}, {"measurement": "Plant response rating, Kochia", "setting": "kochia (Kochia scoparia); 31 g ai/ha, scale 0 to 100", "value": 0}, {"measurement": "Plant response rating, Kochia", "setting": "kochia (Kochia scoparia); [9]", "value": 0}, {"measurement": "Pigweed plant response rating", "setting": "[6]; 8 g ai/ha", "value": 0}, {"measurement": "Pigweed plant response rating", "setting": "[6]; 16 g ai/ha", "value": 0}, {"measurement": "Plant response rating, Pigweed", "setting": "[6]; 31 g ai/ha, scale 0 to 100", "value": 0}, {"measurement": "Plant response rating, Pigweed", "setting": "[6]; [9]", "value": 0}, {"measurement": "Soybean plant response rating", "setting": "soybean (Glycine max); 8 g ai/ha", "value": 0}, {"measurement": "Soybean plant response rating", "setting": "soybean (Glycine max); 16 g ai/ha", "value": 0}, {"measurement": "Plant response rating, Soybean", "setting": "soybean (Glycine max); 31 g ai/ha, scale 0 to 100", "value": 0}, {"measurement": "Plant response rating, Soybean", "setting": "soybean (Glycine max); [9]", "value": 0}, {"measurement": "Cupgrass, Woolly plant response rating", "setting": "[7]; [10]", "value": 0}, {"measurement": "Plant response rating, Cupgrass, Woolly", "setting": "[7]; 16 g ai/ha, scale 0 to 100", "value": 0}, {"measurement": "Plant response rating, Cupgrass, Woolly", "setting": "[7]; 31 g ai/ha, scale 0 to 100", "value": 30}, {"measurement": "Plant response rating, Cupgrass, Woolly", "setting": "[7]; [9]", "value": 60}, {"measurement": "Nutsedge, Yellow plant response rating", "setting": "[8]; 8 g ai/ha", "value": 0}, {"measurement": "Nutsedge, Yellow plant response rating", "setting": "[8]; 16 g ai/ha", "value": 0}, {"measurement": "Plant response rating, Nutsedge, Yellow", "setting": "[8]; 31 g ai/ha, scale 0 to 100", "value": 0}, {"measurement": "Plant response rating, Nutsedge, Yellow", "setting": "[8]; [9]", "value": 0}]}]}
